Assay results from patent US12661410B2, “Compounds for targeted degradation of RET” (C4 Therapeutics, Inc., priority 2020, dated 2026).
Changes are numbered by the printed parent chain.

Legend:
[1] = biological target: T1, RET(KD: 658-1114 G810R) (Homo sapiens, UniProt P07949, G810R); test: HiBiT-Degradation, RET G810R degradation assay (Nano-Glo HiBiT Lytic), 293T.165 cells; type: cell-based; settings: for Emax / DC50: 6.0 hours; for Emax: % remaining protein, read-out: 293T.165 RET(KD: 658-1114 G810R) 6.0 hours (Emax); for DC50: half-maximal degradation concentration, read-out: 293T.165 RET(KD: 658-1114 G810R) 6.0 hours (DC50)
T1 construct: 658-1114; expressed in transfected cells; host or cells: 293T.165 (293T cells, generated in-house)
T1 sequence (P07949 658-1114 G810R): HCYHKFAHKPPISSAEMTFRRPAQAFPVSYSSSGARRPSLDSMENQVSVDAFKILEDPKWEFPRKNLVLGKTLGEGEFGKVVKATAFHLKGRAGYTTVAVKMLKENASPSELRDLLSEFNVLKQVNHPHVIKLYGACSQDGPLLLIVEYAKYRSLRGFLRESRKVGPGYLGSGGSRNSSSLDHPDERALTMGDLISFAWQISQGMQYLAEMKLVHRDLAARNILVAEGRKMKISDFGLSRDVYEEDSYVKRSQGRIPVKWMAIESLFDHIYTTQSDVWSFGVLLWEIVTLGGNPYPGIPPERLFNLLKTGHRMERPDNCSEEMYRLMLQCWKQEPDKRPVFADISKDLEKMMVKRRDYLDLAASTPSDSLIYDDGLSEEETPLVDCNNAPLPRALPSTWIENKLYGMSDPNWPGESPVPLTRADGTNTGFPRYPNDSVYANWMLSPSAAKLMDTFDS
How it was run: (§1)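 Degradation after 6 h compound exposure (top 10 μM, 11 half-log points, duplicates) measured by Nano-Glo HiBiT lytic luminescence. Cells: 293T.144 carrying wild-type and 293T.165 carrying G810R HiBiT-RET kinase domain; curves yield DC50 and Emax.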

[2] = biological target: T2, RET (658-1114) (Homo sapiens, UniProt P07949); test: HiBiT-Degradation, RET wild-type degradation assay (Nano-Glo HiBiT Lytic), 293T.144 cells; type: cell-based; settings: for Emax / DC50: 6.0 hours; for Emax: % remaining protein, read-out: 293T.144 RET (658-1114) 6.0 hours (Emax); for DC50: half-maximal degradation concentration, read-out: 293T.144 RET (658-1114) 6.0 hours (DC50)
T2 construct: 658-1114; expressed in transfected cells; host or cells: 293T.144 (293T cells, generated in-house)
T2 sequence (P07949 658-1114): T1 sequence (P07949 658-1114 G810R) with R153G
How it was run: as §1

| Structure (SMILES) | 293T.165 RET(KD: 658-1114 G810R) 6.0 hours (IP) [nM] [1] | Emax [1] [%] | DC50 [1] [nM] | 293T.144 RET (658-1114) 6.0 hours (IP) [nM] [2] | Emax [2] [%] | DC50 [2] [nM] |
| --- | --- | --- | --- | --- | --- | --- |
| CCC1(C(=O)NC[C@H]2C[C@@H](F)C2)CCN(c2ccc(-c3nc(-c4cnn([C@H]5CC[C@H](N6CCN(c7ccc(NC8CCC(=O)NC8=O)cc7F)CC6)CC5)c4)cn4ncc(C#N)c34)cn2)CC1 (stereo partly drawn) [Compound 210, 1-[5-[3-cyano-6-[1-[4-[4-[4-[(2,6-dioxo-3-piperidyl)amino]-2-fluoro-phenyl]piperazin-1-yl]cyclohexyl]pyrazol-4-yl]pyrazolo[1,5-a]pyrazin-4-yl]-2-pyridyl]-4-ethyl-N-[(3-fluorocyclobutyl)methyl]piperidine-4-carboxamide] | ++++ (<50 nM = ++++) | < 30 | < 100 | ++++ (<50 nM = ++++) | < 30 | < 50 |
| N#Cc1cnn2cc(-c3cnn([C@H]4CC[C@H](N5CCN(c6c(F)cc(NC7CCC(=O)NC7=O)cc6F)CC5)CC4)c3)nc(-c3ccc(N4CC5CC(C4)N5CC4CCC(F)(F)CC4)nc3)c12 (stereo partly drawn) [Compound 214, 4-[6-[6-[(4,4-difluorocyclohexyl)methyl]-3,6-diazabicyclo[3.1.1]heptan-3-yl]-3-pyridyl]-6-[1-[4-[4-[4-[(2,6-dioxo-3-piperidyl)amino]-2,6-difluoro-phenyl]piperazin-1-yl]cyclohexyl]pyrazol-4-yl]pyrazolo[1,5-a]pyrazine-3-carbonitrile] | +++ (<100 nM = +++) | < 30 | < 100 | ++++ (<50 nM = ++++) | < 30 | < 50 |
| COc1cc(N2CCN([C@H]3CC[C@H](n4cc(-c5cn6ncc(C#N)c6c(-c6ccc(N7CC8CC(C7)N8Cc7ccccc7S(C)(=O)=O)nc6)n5)cn4)CC3)CC2)c(F)cc1NC1CCC(=O)NC1=O (stereo partly drawn) [Compound 217, 6-[1-[4-[4-[4-[(2,6-dioxo-3-piperidyl)amino]-2-fluoro-5-methoxy-phenyl]piperazin-1-yl]cyclohexyl]pyrazol-4-yl]-4-[6-[6-[(2-methylsulfonylphenyl)methyl]-3,6-diazabicyclo[3.1.1]heptan-3-yl]-3-pyridyl]pyrazolo[1,5-a]pyrazine-3-carbonitrile] | ++++ (<50 nM = ++++) | < 30 | < 100 | ++++ (<50 nM = ++++) | < 30 | < 50 |

The remaining lines, values ahead:

| 293T.165 RET(KD: 658-1114 G810R) 6.0 hours (IP) [nM] [1] | Emax [1] [%] | DC50 [1] [nM] | 293T.144 RET (658-1114) 6.0 hours (IP) [nM] [2] | Emax [2] [%] | DC50 [2] [nM] | Structure (SMILES) |
| --- | --- | --- | --- | --- | --- | --- |
| ++++ (<50 nM = ++++) | < 30 | < 50 | ++++ (<50 nM = ++++) | < 30 | < 50 | COc1ccc(CC2(O)CCN(c3ccc(-c4nc(-c5cnn([C@H]6CC[C@H](N7CCN(c8cc(OC)c(NC9CCC(=O)NC9=O)cc8F)CC7)CC6)c5)cn5ncc(C#N)c45)cn3)CC2)nc1 (stereo partly drawn) [Compound 215, 6-[1-[4-[4-[4-[(2,6-dioxo-3-piperidyl)amino]-2-fluoro-5-methoxy-phenyl]piperazin-1-yl]cyclohexyl]pyrazol-4-yl]-4-[6-[4-hydroxy-4-[(5-methoxy-2-pyridyl)methyl]-1-piperidyl]-3-pyridyl]pyrazolo[1,5-a]pyrazine-3-carbonitrile] |
| +++ (<100 nM = +++) | < 30 | < 100 | ++++ (<50 nM = ++++) | < 30 | < 50 | COc1ccc(CC2(C(=O)NC(C)C)CCN(c3ccc(-c4nc(-c5cnn([C@H]6CC[C@H](N7CCN(c8cc(OC)c(NC9CCC(=O)NC9=O)cc8F)CC7)CC6)c5)cn5ncc(C#N)c45)cn3)CC2)nc1 (stereo partly drawn) [Compound 216, 1-[5-[3-cyano-6-[1-[4-[4-[4-[(2,6-dioxo-3-piperidyl)amino]-2-fluoro-5-methoxy-phenyl]piperazin-1-yl]cyclohexyl]pyrazol-4-yl]pyrazolo[1,5-a]pyrazin-4-yl]-2-pyridyl]-N-isopropyl-4-[(5-methoxy-2-pyridyl)methyl]piperidine-4-carboxamide] |
